Test results published in the supplement of paper PMC10307832.

Columns and labels:
Experiment in all cases: relative viability (nuclei count vs DMSO), 5 days (fraction); higher = more cells survive
[1] = compound: CC1=CC(=NN1)NC2=CC(=NC(=N2)/C=C/C3=CC=CC=C3)N4CCN(CC4)C + N=C(N)NC(=N)NCCc1ccccc1 [Phenformin] (partner 250 µM)
Summary of the method: (§1)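 Five library-drug doses in √10 steps were combined with a fixed anchor-drug dose, or a single drug was given alone, by pin tool to lung cancer cell lines in 1536-well plates the day after seeding. Nuclei were stained and counted after 5 days. Relative viability is the nuclei count in treated wells over that in vehicle wells, taken as the median of duplicate plates.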

[2] = compound: CC1=CC(=NN1)NC2=CC(=NC(=N2)/C=C/C3=CC=CC=C3)N4CCN(CC4)C + CC(=O)c1c(C)c2cnc(Nc3ccc(N4CCNCC4)cn3)nc2n(C2CCCC2)c1=O [Palbociclib] (partner 0.5 µM)
Summary of the method: as §1

[3] = compound: CC1=CC(=NN1)NC2=CC(=NC(=N2)/C=C/C3=CC=CC=C3)N4CCN(CC4)C + NC(=O)Nc1cc(-c2cccc(F)c2)sc1C(=O)N[C@H]1CCCNC1 [AZD7762] (partner 0.2 µM)
Summary of the method: as §1

[4] = compound: CC(C)C[C@H](NC(=O)[C@H](Cc1ccccc1)NC(=O)c1cnccn1)B(O)O [Bortezomib] + Cc1nc(NC(=O)N2CCC[C@H]2C(N)=O)sc1-c1ccnc(C(C)(C)C(F)(F)F)c1 [Alpelisib] (partner 2 µM)
Summary of the method: as §1

| Cell Line | relative viability ([1]; first compound 0.08 µM) | relative viability ([1]; first compound 0.253 µM) | relative viability ([1]; first compound 0.8 µM) | relative viability ([1]; first compound 2.53 µM) | relative viability ([1]; first compound 8 µM) | relative viability ([2]; first compound 0.08 µM) | relative viability ([2]; first compound 0.253 µM) | relative viability ([2]; first compound 0.8 µM) | relative viability ([2]; first compound 2.53 µM) | relative viability ([2]; first compound 8 µM) | relative viability ([3]; first compound 0.08 µM) | relative viability ([3]; first compound 0.253 µM) | relative viability ([3]; first compound 0.8 µM) | relative viability ([3]; first compound 2.53 µM) | relative viability ([3]; first compound 8 µM) | relative viability ([4]; first compound 0.0002 µM) | relative viability ([4]; first compound 0.000632 µM) | relative viability ([4]; first compound 0.002 µM) | relative viability ([4]; first compound 0.006325 µM) | relative viability ([4]; first compound 0.02 µM) |
| --- | --- | --- | --- | --- | --- | --- | --- | --- | --- | --- | --- | --- | --- | --- | --- | --- | --- | --- | --- | --- |
| SW 900 | 0.467 | 0.529 | 0.6 | 0.172 | 0.0691 | 0.514 | 0.542 | 0.497 | 0.284 | 0.12 | 0.534 | 0.526 | 0.649 | 0.314 | 0.104 |  |  |  |  |  |
| EBC-1 |  |  |  |  |  |  |  |  |  |  |  |  |  |  |  | 0.869 | 0.727 | 0.29 | 0.126 | 0.0969 |
| NCI-H1650 | 0.418 | 0.404 | 0.464 | 0.106 | 0.0916 | 0.285 | 0.414 | 0.351 | 0.201 | 0.0872 |  |  |  |  |  |  |  |  |  |  |
| SW 1573 | 0.412 | 0.337 | 0.319 | 0.152 | 0.0862 | 0.378 | 0.442 | 0.301 | 0.131 | 0.0733 |  |  |  |  |  | 0.833 | 0.774 | 0.813 | 0.164 | 0.0782 |
| NCI-H1299 |  |  |  |  |  |  |  |  |  |  |  |  |  |  |  | 1.02 | 1.07 | 1.08 | 0.89 | 0.304 |
| SK-LU-1 | 0.58 | 0.511 | 0.475 | 0.109 | 0.0429 | 0.453 | 0.368 | 0.457 | 0.248 | 0.155 |  |  |  |  |  | 1.09 | 0.963 | 0.551 | 0.154 | 0.149 |
| COR-L23 | 0.45 | 0.479 | 0.414 | 0.0934 | 0.0951 | 0.315 | 0.33 | 0.24 | 0.127 | 0.0777 |  |  |  |  |  | 0.825 | 0.698 | 0.444 | 0.0416 | 0.0432 |
| A549 | 0.178 | 0.181 | 0.195 | 0.0435 | 0.025 |  |  |  |  |  |  |  |  |  |  | 0.769 | 0.706 | 0.756 | 0.055 | 0.0365 |
| NCI-H2023 | 0.366 | 0.517 | 0.382 | 0.0903 | 0.0763 | 0.406 | 0.451 | 0.301 | 0.111 | 0.0652 |  |  |  |  |  | 0.525 | 0.612 | 0.74 | 0.383 | 0.0813 |
| UMC-11 | 0.348 | 0.289 | 0.279 | 0.137 | 0.131 | 0.327 | 0.342 | 0.323 | 0.232 | 0.232 |  |  |  |  |  | 0.842 | 0.994 | 1.09 | 0.223 | 0.136 |
| NCI-H1623 | 0.6 | 0.615 | 0.583 | 0.563 | 0.343 |  |  |  |  |  |  |  |  |  |  |  |  |  |  |  |
| NCI-H596 | 0.767 | 0.807 | 0.627 | 0.608 | 0.259 |  |  |  |  |  | 1.07 | 1.14 | 1.04 | 0.583 | 0.279 | 0.541 | 0.431 | 0.42 | 0.174 | 0.128 |
| IA-LM |  |  |  |  |  |  |  |  |  |  |  |  |  |  |  | 0.773 | 0.669 | 0.561 | 0.0626 | 0.0159 |
| NCI-H2009 | 0.501 | 0.503 | 0.492 | 0.27 | 0.148 | 0.191 | 0.18 | 0.216 | 0.129 | 0.102 |  |  |  |  |  | 1.13 | 1.19 | 1.14 | 0.543 | 0.0447 |
